Results published in patent US10287308B2, “Compounds, compositions, and methods for the treatment of cancers” (priority 2013, dated 2019).

Legend:
[1] = physchem
[2] = logP by reverse phase HPLC retention time against a calibration curve; settings: chromatographic method, Zorbax Eclipse XDB C8, 30° C.
[3] = H460 tumor-bearing nude mice, intravenous, dosed at MTD as free drug, 24 hour time point, FIG. 2
Procedure: Animals were inoculated with 5×10^5 H460 small cell lung cancer cells via subcutaneous injection to the flank. Tumors were allowed to reach an approximate volume of ˜500 mm^3. Animals were then randomized into treatment groups of 3 animals per time point and were dosed at the maximum tolerated dose (MTD). The 24 hour time point was used as a benchmark across compounds
Tumor platinum levels were determined by inductively coupled plasma mass spectrometry (ICP-MS). Tumors were excised from animals and dissolved in fuming nitric acid (60% w/w) by adding four parts nitric acid to 1 part tumor w/w and heating overnight at 60 degrees Centigrade. The resulting digest was diluted 1:10 in ICP-MS analysis buffer (1% nitric acid, 2% Triton® x-100), and directly introduced into the ICP-MS unit by peristaltic pump. The end dilution factor for the samples as introduced to the ICP-MS was 50×.

[4] = Maximum tolerated dose used in the mouse PK/PD study; type: in vivo; settings: H460 tumor-bearing mice

| SMILES | chromatographic logP [1] | Measured LogP [2] | platinum levels in the tumor [3] | Dose (mg/kg), dosed at the maximum tolerated dose (MTD) [4] [mg/kg] |
| --- | --- | --- | --- | --- |
| CCNC(=O)[O][Pt]([NH2])([NH2])([Cl])([Cl])[O]C(C)=O [Compound 1] | < 1 | – | – | – |
| CCNC(=O)[O][Pt]([NH2])([NH2])([Cl])([Cl])[O]C(=O)NCC [Compound 5] | – | <1 | higher platinum levels | 30 |
